Measurements published in patent US8697703B2, “Piperazine derivatives for blocking Cav2.2 calcium channels” (Convergence Pharmaceuticals Limited, priority 2010, dated 2014).
Where “and” joins values, the source holds several entries; their conditions need not be identical. Equal entries are not always repeated. Structures can show the parent of a compound that is named as a salt.

Assays:
[1] = biological target: T1, hCav3.2 channels (T-type; CACNA1H) (Homo sapiens, UniProt O95180, V664A); assay: Cav3.2 assay (T-type), IonWorks Quattro planar array electrophysiology in stable HEK293 cells; type: cell-based; conditions: for IC50: current elicited by the 1st depolarising pulse inhibited by 50%, read-out: pIC50 (tonic) (converted)
T1 construct: predicted protein is equivalent to the full-length human variant NP_066921; expressed in transfected cells; plasmid pCIN5-human-alpha1H
Excerpt: The ability of the compounds of the invention to modulate the voltage-gated calcium channel subtype Cav3.2 (T-Type) may be determined by the following assay.
Stable cell lines expressing hCav3.2 channels were created by transfecting HEK293 cells with the plasmid pCIN5-human-alpha1H. pCIN5-human-alpha1H predicted protein is equivalent to the full-length human variant NP_066921 for the human ion channel CACNA1H (voltage dependent calcium channel T type alpha 1H subunit), the longer variant form. It contains minor alleles for two SNPs (Ala 664 and Arg 2077). However, in the absence of any knowledge about compound binding at this ion channel, these rare variants are not seen as issues. Stable cell line was selected by 500 ug/ml G418 (geneticin). The best cell line clone was selected by IonWorks. Cells were cultured in DMEM/F12 medium supplemented by 10% Foetal Bovine Serum (Gibco/Invitrogen #041-95750), 1% non-essential amino acids (PAA, M11-003) and 1% Penicillin-Streptomycin (Invitrogen, 15140-122). 500 ug/ml of G418 (PAA, P11-012) was added to maintain channel expression. Cells were grown and maintained at 37° C. in a humidified environment containing 5% CO2 in air. Cells were detached from the T175 culture flask for passage and harvesting using TrypLE (Gibco/Invitrogen cat #12604). For the experiment, cells were plated in a T175 culture flask 48 hours before running the assay to reach a 50-80% confluence the day of the experiment.
Cells were grown to 50-80% confluence in a T175 flask. Cells were removed from the incubator and the media was aspirated. Cells were washed with 5 ml of warmed (37° C.) TrypLE and then 3 ml of warmed (37° C.) TrypLE was added to the flask for 6 min. The flask was tapped to dislodge cells and 5 ml of warmed (37° C.) external buffer with barium and magnesium was added to prepare a cell suspension. Cell suspension was then placed into a 15 ml centrifuge tube and centrifuged for 2 min at 1000 rpm. After centrifugation, the supernatant was removed and the cell pellet was resuspended in 4-5 ml of pre-warmed (37° C.) external solution with barium and magnesium using a 5 ml pipette to break up the pellet.
Currents were recorded at room temperature using the IonWorks Quattro™ planar array electrophysiology technology (Molecular Devices Corp.) with PatchPlate™ PPC for Ionworks Quattro (Molecular Devices, 9000-0902). Stimulation protocols and data acquisition were carried out using a microcomputer (Dell Pentium 4). In order to determine planar electrode hole resistances (Rp), a 10 mV voltage step was applied across each well. These measurements were performed before cell addition. After cell addition a seal test was performed by applying a voltage step from −80 mV to −70 mV for 160 ms prior to antibiotic amphotericin-B solution (Sigma, […]) circulation to achieve intracellular access. Leak subtraction was conducted in all experiments by applying a 80 ms hyperpolarizing (10 mV) prepulse followed by a 80 ms at the holding potential before the test pulses, to measure leak current. Test pulses stepping from the holding potential of −120 mV to −40 mV were applied for 25 ms and repeated 10 times at a frequency of 3 Hz. In all experiments, the test pulse protocol was performed in the absence (pre-read) and presence (post-read) of a compound. Pre- and post-reads were separated by a compound addition followed by a 10 minute incubation.
The intracellular solution contained the following (in mM): K-gluconate 120, KCl 20, MgCl2 5, EGTA 5, HEPES 10, adjusted to pH 7.35.
Amphotericin-B solution was prepared as 50 mg/ml stock solution in DMSO and diluted to a final working concentration of 0.2 mg/ml in intracellular solution. The external solution contained the following (in mM): Na-gluconate 120, NaCl 20, HEPES 10, MgCl2 1, BaCl2 5, with a pH of 7.35.
Compounds were prepared in DMSO as 10 mM stock solutions and subsequent 1:3 serial dilutions were performed. […]

[2] = biological target: T2, hCav2.2 (N-type) calcium channel: human Cav2.2α (α1B) subunit with human β3 and α2δ1 auxiliary subunits (Homo sapiens, UniProt Q00975); assay: hCav2.2 assay (N-type), IonWorks planar array electrophysiology in stable HEK293 cells; type: cell-based; conditions: hydrochloride
T2 construct: expressed in transfected cells; plasmids pCIN5-hCav2.2, pCIH-hCav β3, pCIP-α2δ1
Method: Compounds as defined in the first or second aspect may be tested for in vitro biological activity in the hCav2.2 assay (N-type) in accordance with the following studies:
Stable cell lines expressing the human Cav2.2α (α1B) subunit, along with the human β3 and α2δ1 auxiliary subunits were created following sequential transfection and selection of human embryonic kidney (HEK293) cells. HEK293 cells were cultured in Dulbecco's modified Eagles media/F12 media (Invitrogen, Cat #041-95750V) containing 10% fetal bovine serum, with added L-glutamine (2 mM; Invitrogen, Cat #25030-024) and non-essential amino acids (5%; Invitrogen, Cat #11140-035). […] These clonal cell lines were assessed for Cav2.2 α/β3-mediated current expression using the IonWorks planar array electrophysiology technology (described below). […]
Currents were recorded at room temperature (21-23° C.) using the IonWorks planar array electrophysiology technology (Molecular Devices Corp.). […] In all experiments, the test pulse protocol was performed in the absence (pre-read) and presence (post-read) of a compound. Pre- and post-reads were separated by a compound addition followed by a 3-3.5 min incubation. […]

T1 sequence (O95180 whole entry V664A): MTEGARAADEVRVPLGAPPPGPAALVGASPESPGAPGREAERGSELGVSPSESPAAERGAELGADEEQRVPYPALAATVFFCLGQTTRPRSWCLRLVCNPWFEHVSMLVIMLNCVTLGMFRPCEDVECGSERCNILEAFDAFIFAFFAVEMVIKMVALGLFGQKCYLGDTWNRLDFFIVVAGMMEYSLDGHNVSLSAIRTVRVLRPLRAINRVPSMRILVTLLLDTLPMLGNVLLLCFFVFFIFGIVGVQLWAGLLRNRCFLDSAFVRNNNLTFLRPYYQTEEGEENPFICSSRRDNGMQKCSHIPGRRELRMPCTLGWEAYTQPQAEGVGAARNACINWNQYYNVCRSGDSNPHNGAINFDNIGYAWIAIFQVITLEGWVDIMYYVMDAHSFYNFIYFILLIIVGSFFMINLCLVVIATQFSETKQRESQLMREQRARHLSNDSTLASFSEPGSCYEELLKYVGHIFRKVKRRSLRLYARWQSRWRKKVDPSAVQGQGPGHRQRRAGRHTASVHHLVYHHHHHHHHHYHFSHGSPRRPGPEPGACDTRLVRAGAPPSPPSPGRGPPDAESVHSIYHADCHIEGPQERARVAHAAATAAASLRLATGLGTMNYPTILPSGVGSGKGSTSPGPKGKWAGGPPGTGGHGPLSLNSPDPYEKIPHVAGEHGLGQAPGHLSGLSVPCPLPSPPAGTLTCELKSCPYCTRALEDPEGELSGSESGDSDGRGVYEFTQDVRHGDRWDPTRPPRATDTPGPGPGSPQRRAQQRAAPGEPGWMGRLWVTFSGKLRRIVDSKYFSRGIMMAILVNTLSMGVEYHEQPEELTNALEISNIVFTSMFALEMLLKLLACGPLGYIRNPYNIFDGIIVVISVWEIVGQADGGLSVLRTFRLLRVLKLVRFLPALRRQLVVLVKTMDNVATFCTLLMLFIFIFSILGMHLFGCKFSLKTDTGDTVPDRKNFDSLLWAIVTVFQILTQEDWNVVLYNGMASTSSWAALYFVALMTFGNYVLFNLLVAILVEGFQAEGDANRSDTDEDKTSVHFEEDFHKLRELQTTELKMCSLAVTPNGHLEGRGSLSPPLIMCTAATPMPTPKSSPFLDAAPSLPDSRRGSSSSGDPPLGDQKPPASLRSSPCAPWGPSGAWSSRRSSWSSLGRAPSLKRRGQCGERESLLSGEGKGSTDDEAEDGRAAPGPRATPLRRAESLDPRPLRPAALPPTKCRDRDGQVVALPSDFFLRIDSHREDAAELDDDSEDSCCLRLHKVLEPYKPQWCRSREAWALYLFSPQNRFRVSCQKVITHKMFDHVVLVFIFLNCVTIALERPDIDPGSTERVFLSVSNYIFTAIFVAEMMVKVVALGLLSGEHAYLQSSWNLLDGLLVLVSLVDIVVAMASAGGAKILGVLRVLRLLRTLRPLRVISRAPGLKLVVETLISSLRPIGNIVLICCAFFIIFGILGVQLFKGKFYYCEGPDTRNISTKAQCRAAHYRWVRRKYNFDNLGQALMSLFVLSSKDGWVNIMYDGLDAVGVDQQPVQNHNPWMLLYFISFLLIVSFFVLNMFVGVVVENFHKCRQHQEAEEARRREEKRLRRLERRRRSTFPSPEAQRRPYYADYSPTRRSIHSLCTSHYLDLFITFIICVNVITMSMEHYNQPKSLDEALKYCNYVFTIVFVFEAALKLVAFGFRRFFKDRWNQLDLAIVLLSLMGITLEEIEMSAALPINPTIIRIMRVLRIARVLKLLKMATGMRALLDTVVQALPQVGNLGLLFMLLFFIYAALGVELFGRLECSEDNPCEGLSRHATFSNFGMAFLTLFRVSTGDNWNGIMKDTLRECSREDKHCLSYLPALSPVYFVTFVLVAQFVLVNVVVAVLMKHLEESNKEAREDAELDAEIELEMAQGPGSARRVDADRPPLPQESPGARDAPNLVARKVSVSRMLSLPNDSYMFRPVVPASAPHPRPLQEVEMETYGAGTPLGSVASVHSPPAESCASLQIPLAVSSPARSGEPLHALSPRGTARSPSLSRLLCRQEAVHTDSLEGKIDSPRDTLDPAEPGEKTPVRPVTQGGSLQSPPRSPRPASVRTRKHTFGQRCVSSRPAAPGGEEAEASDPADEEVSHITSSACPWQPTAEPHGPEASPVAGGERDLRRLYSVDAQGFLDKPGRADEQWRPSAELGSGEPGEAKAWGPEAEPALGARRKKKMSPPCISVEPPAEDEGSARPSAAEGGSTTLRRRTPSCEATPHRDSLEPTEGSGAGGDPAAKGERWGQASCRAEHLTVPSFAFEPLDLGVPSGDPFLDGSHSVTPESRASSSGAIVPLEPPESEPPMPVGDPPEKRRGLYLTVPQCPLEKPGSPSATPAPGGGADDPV

Structure (SMILES) | IC50 [1] | further results
Cc1c(C(=O)N2CCN(S(=O)(=O)c3ccc(OC(F)(F)F)cc3)CC2)ccc2cccnc12 [Compound 2, 8-Methyl-7-{[4-({4-[(trifluoromethyl)oxy]phenyl}sulfonyl)-1-piperazinyl]carbonyl}quinoline] | ≤ 31.6 µM | 
Cl.O=C(c1ccc2ccccc2n1)N1CCN(S(=O)(=O)c2ccc(C(F)(F)F)cc2)CC1 [Compound 3, 2-[(4-{[4-(Trifluoromethyl)phenyl]sulfonyl}-1-piperazinyl)carbonyl]quinoline hydrochloride] | 25.1 µM and ≤ 31.6 µM | pUD30 (use-dependent) ([1]; concentration producing 30% use-dependent inhibition, 10th versus 1st depolarising pulse, 3 Hz, -120 mV to -40 mV, hydrochloride): 5.4; pUD30 (use-dependent) ([2]; concentration producing 30% use-dependent inhibition, 10th versus 1st depolarising pulse, 10 Hz, -90 mV to +10 mV): 5.8; pIC50 (tonic) ([2]; current elicited by the 1st depolarising pulse inhibited by 50%): 4.6
C[C@H]1CN(S(=O)(=O)c2ccc(C(F)(F)F)cc2)CCN1C(=O)c1ccc2cccnc2c1 [Compound 1, 7-[((2S)-2-Methyl-4-{[4-(trifluoromethyl)phenyl]sulfonyl}-1-piperazinyl)carbonyl]quinoline] | ≤ 31.6 µM | 
Cc1cc(C#N)ccc1S(=O)(=O)N1CCN(C(=O)c2ccc3cccnc3c2)CC1 [Compound 7, 3-Methyl-4-{[4-(7-quinolinylcarbonyl)-1-piperazinyl]sulfonyl}benzonitrile hydrochloride] | ≤ 31.6 µM | 
Cc1ccc2ccc(C(=O)N3CCN(S(=O)(=O)c4ccc(C#N)cc4C)CC3)cc2n1 [Compound 9, 3-Methyl-4-({4-[(2-methyl-7-quinolinyl)carbonyl]-1-piperazinyl}sulfonyl)benzonitrile hydrochloride] | ≤ 31.6 µM | 

The next lines start with results.

IC50 [1] | Structure (SMILES) | further results
≤ 31.6 µM | Cc1cc(C#N)ccc1S(=O)(=O)N1CCN(C(=O)c2cccc3ccncc23)CC1 [Compound 26, 4-{[4-(8-Isoquinolinylcarbonyl)-1-piperazinyl]sulfonyl}-3-methylbenzonitrile hydrochloride] | 
≤ 31.6 µM | Cc1cc(C#N)ccc1S(=O)(=O)N1CCN(C(=O)c2ccc3cccnc3c2C)[C@@H](C)C1 [Compound 15, 3-Methyl-4-({(3S)-3-methyl-4-[(8-methyl-7-quinolinyl)carbonyl]-1-piperazinyl}sulfonyl)benzonitrile] | 
≤ 31.6 µM | Cc1ccc2ccc(C(=O)N3CCN(S(=O)(=O)c4ccc(C#N)cc4C)C[C@@H]3C)cc2n1 [Compound 10, 3-Methyl-4-({(3S)-3-methyl-4-[(2-methyl-7-quinolinyl)carbonyl]-1-piperazinyl}sulfonyl)benzonitrile] | 
≤ 31.6 µM | O=C(c1cccc2cccnc12)N1CCN(S(=O)(=O)c2ccc(OC(F)(F)F)cc2)CC1 [Compound 30, 8-{[4-({4-[(Trifluoromethyl)oxy]phenyl}sulfonyl)-1-piperazinyl]carbonyl}quinoline] | 
